US20140031283A1, “ANTICANCER FUSION PROTEIN” (ADAMED SP. Z O.O., priority 2011, published 2014)

Key:
[1] = tested on: human liver cancer model HepG2; test: HepG2 liver cancer xenograft in Crl:SHO-Prkdc^scidHr^hr mice; format: in vivo; settings: 30 mg/kg i.v. six times every second day, 33rd day
Procedure: (§1) Antitumor activity of protein preparations was tested in a mouse model of human colon cancer HCT116, human colon cancer Colo205, human colon cancer model SW620, human liver cancer model HepG2, and human lung cancer models NCI-H460 and NCI-H460-Luc2.
The HepG2cells were maintained in MEM (HyClone, Logan, Utah, USA) supplemented with 10% fetal calf serum and 2 mM glutamine. On the day of mice grafting, the cells were detached from the support by washing the cells with trypsin (Invitrogen), then the cells were centrifuged at 1300 rpm, 4°C., 8 min., suspended in HBSS buffer (Hanks medium), counted and diluted to the concentration of 25×10^6 cells/ml.
Examination of antitumor activity of proteins of the invention was conducted on 7-9 week-old CD-nude (Crl:CD1-Foxn1^nu 1) or 4-6 week-old Crl:SHO-Prkdc^scidHr^hr mice obtained from Charles River Germany. Mice were kept under specific pathogen-free conditions with free access to food and demineralised water (ad libitum). All experiments on animals were carried in accordance with the guidelines: “Interdisciplinary Principles and Guidelines for the Use of Animals in Research. Marketing and Education” issued by the New York Academy of Sciences' Ad Hoc Committee on Animal Research and were approved by the IV Local Ethics Committee on Animal Experimentation in Warsaw (No. 71/2009). […]

[2] = tested on: human colon cancer model SW620; test: SW620 colon cancer xenograft in Crl:SHO-Prkdc^scidHr^hr mice; format: in vivo; settings: 30 mg/kg i.v. six times every second day, 31st day
Procedure: as §1
The HCT116 (in mice Crl:SHO-Prkdc^scidHr^hr) were alternatively maintained in McCoy's medium (Hyclone, Logan, Utah, USA) supplemented with 10% fetal calf serum and 2 mM glutamine. On the day of mice grafting, the cells were detached from the support by washing the cells with trypsin (Invitrogen), then the cells were centrifuged at 1300 rpm, 4° C., 8 min., suspended in HBSS buffer (Hanks medium), counted and diluted to the concentration of 25×10^6 cells/ml. SW620 cells were maintained in DMEM (HyClone, Logan, Utah, USA) supplemented with 10% fetal calf serum and 2 mM glutamine. On the day of mice grafting, the cells were detached from the support by washing the cells with trypsin (Invitrogen), then the cells were centrifuged at 1300 rpm, 4° C., 8 min., suspended in HBSS buffer (Hanks medium), counted and diluted to the concentration of 25×10^6 cells/ml.
Examination of antitumor activity of proteins of the invention was conducted on 7-9 week-old CD-nude (Crl:CD1-Foxn1^nu 1) or 4-6 week-old Crl:SHO-Prkdc^scidHr^hr mice obtained from Charles River Germany. […]

[3] = tested on: human colon cancer Colo205; test: Colo205 colon cancer xenograft in Crl:SHO-Prkdc^scidHr^hr mice; format: in vivo; settings: 30 mg/kg i.v. six times every second day, 33rd day
Procedure: as §1
The HCT116 (in mice Crl:CD1-Foxn1^nu 1), Colo205, NCI-H460, NCI-H460-Luc2 cells were maintained in RPMI 1640 medium (Hyclone, Logan, Utah, USA) mixed in the ratio of 1:1 with Opti-MEM (Invitrogen, Cat.22600-134) supplemented with 10% fetal calf serum and 2 mM glutamine. On the day of mice grafting, the cells were detached from the support by washing the cells with trypsin (Invitrogen), then the cells were centrifuged at 1300 rpm, 4° C., 8 min., suspended in HBSS buffer (Hanks medium), counted and diluted to the concentration of 25×10^6 cells/ml.
Examination of antitumor activity of proteins of the invention was conducted on 7-9 week-old CD-nude (Crl:CD1-Foxn1^nu 1) or 4-6 week-old Crl:SHO-Prkdc^scidHr^hr mice obtained from Charles River Germany. Mice were kept under specific pathogen-free conditions with free access to food and demineralised water (ad libitum). All experiments on animals were carried in accordance with the guidelines: “Interdisciplinary Principles and Guidelines for the Use of Animals in Research. […]

HCT-116 = settings: continuous incubation over 72 h, test MTT
Procedure: Data analysis consists in determining IC50 concentration of the protein (in ng/ml), at which the 50% reduction in the number of cells occurs in the population treated compared to control cells. Results were analyzed using GraphPad Prism 5.0 software. […] Cell culture medium was diluted to a defined density (10^4-10^5 cells per 100 μl). Then 100 μl of appropriately diluted cell suspension was applied to a 96-well plate in triplicates. Thus prepared cells were incubated for 24 h at 37° C. in 5% or 10% CO2, depending on the medium used, and then to the cells (in 100 μl of medium) further 100 μl of the medium containing various concentrations of tested proteins were added. […] After incubation of the cells with tested proteins over the period of next 72 hours, which is equivalent to 3-4 times of cell division, the medium with the test protein was added with 20 ml of MTT working solution [5 mg/ml], and incubation was continued for 3 h at 37° C. in 5% CO2. Then the medium with MTT solution was removed, and formazan crystals were dissolved by adding 100 μl of DMSO. After stirring, the absorbance was measured at 570 nm (reference filter 690 nm).
Each experiment represents the average value of at least two independent experiments performed in triplicates.

In the case of “rhTRAIL114-281: recombinant human soluble TRAIL, amino acids 114-281 of hTRAIL, used as the comparative reference”, the “tumor growth inhibition (TGI) relative to the control” value [1] was 12.6%, the “tumor growth inhibition (TGI) relative to the control” value [2] was −9% and the “tumor growth inhibition (TGI) relative to the control” value [3] was 18.8%. The “HCT116 IC50” value (HCT-116) was 25.57 ng/mL.
